Assay results published in patent publication US20210220450A1, “TREATMENT OF AN IOP CONDITION” (The Research Foundation for The State University of New York, priority 2013, published 2021).

Assays:
C57BL/6J mice [1] = test: Outflow facility in TA and protein treated C57BL/6J mouse eyes (Example 13); assay type: in vivo; conditions: TA five days before intravitreal protein (2 μl, 5 μg/μl); two days after injection
Method: C57BL/6J mice were divided into two groups:
(§1) 1) Animals receiving bilateral steroid (TA) injection subconjunctivally five days prior to protein injection (FIG. 10b) and 2) Animals not receiving subconjunctival steroids (FIG. 10c).
(§2) 1) Animals that received unilateral intravitreal injection with 2 μl of tPA (5 μg/μl, Actilyse; Boehringer Ingelheim, Ingelheim am Rhein, Germany) while the contralateral eye received 2 μl of BSA (5 μg/μl; Gold Biotechnology, St Louis, Mo., USA), and 2) Animals that received unilateral intravitreal injections with 2 μl of non-enzymatically active tPA (NE-tPA/S478A-tPA) (5 μg/μl; Innovative Research, Novi, Mich., USA) while the contralateral eye received 2 μl of BSA. Animals were euthanized two days after intravitreal injection.
(§3) Outflow facility determination: Mouse eyes were enucleated immediately after euthanasia. Outflow facility was determined using a constant pressure method, as previously described. Pressure was raised in steps of 4 cmH2O, from 8 cmH2O (5.88 mmHg) to 32 cmH2O (23.54 mmHg) by increasing the height of a column of fluid of BSS. […] Flow was constantly measured via a microfluidic flow sensor (0.07-1.5 uL/min, MFS1; Elveflow, Paris, France). […] Any eyes that developed visible leaks during outflow facility determination, or that had pressure-flow correlations with R^2<0.9, were excluded from analysis but were used for RNA quantification.

Tg-MYOCY437H mice = test: Outflow facility in Tg-MYOCY437H mouse eyes (Example 19); assay type: in vivo
Method: To investigate whether corticosteroids affect outflow facility in Tg-MYOCY437H mice, animals received bilateral injections (20 μl) with either triamcinolone acetonide (TA) (40 mg/ml, Kenalog-40; Bristol-Myers Squibb, NY, USA) suspension or phosphate-buffered saline (PBS) (Gibco, ThermoFisher Scientific, Waltham, Mass., USA) subconjunctivally using a 100 μL Hamilton syringe with a 26-gauge needle (Precision Glide, Becton Dickinson & CO, Franklin Lakes, N.J., USA). They were euthanized one week later for outflow facility measurement.
To investigate whether tPA can affect outflow facility in Tg-MYOCY437H mice, and determine whether tPA enzymatic action is necessary for such an effect, intravitreal injections were performed using a 10 μL Hamilton syringe with 36-gauge stainless steel needles (WPI Inc, Sarasota, Fla., USA). […] Animals were sacrificed either two or five days after intravitreal injections for outflow facility measurement. […]
Mouse eyes were enucleated immediately after euthanasia. Outflow facility was determined using a microfluidic flow sensor (0.07-1.5 uL/min, MFS1; Elveflow, Paris, France) and constant pressure method, as previously described (Hu, Barron et al. 2019). […] Any eyes that developed visible leaks or that had pressure-flow correlations with […] were excluded from analysis but were used for RNA quantification.

Mmp-2, Mmp-9, Mmp-13 = test: Mmp expression in TA and protein treated C57BL/6J eyes (Example 13); assay type: in vivo, mouse; conditions: vs BSA treated controls
[2] = intravitreal use; toxicity attributed to arginine in commercial preparations; cited from earlier work
C57BL/6J mice [3] = test: Outflow facility in protein treated C57BL/6J eyes not exposed to steroids (Example 15); assay type: in vivo, mouse; conditions: C57BL/6J not exposed to steroids, intravitreal protein
Method: as §1, §2
as §3, with “BSS. Steady state was initially achieved after 10 minutes.” for “BSS.”

Mmp-9KO mice = test: Outflow facility in protein treated Mmp-9KO mouse eyes (Example 16); assay type: in vivo; conditions: intravitreal protein, p>0.05
Method: (§4) PlatKO and Mmp-9KO mice were also not given steroids prior to protein injections (FIG. 10c). Within each cohort, animals were divided into two groups:
as §2
as §3, with “BSS. Steady state was initially achieved after 10 minutes.” for “BSS.”

[4] = tested on: MMP-1, MMP-2, MMP-9, MMP-13, PLAT, PAI-1 mRNA; test: qRT-PCR gene expression in sheep TM and ciliary processes after tPA (Examples 6, 7); assay type: in vivo
Text: Methods. Tissue Collection and Isolation of RNA. After animals were euthanized, eyes were immediately enucleated. Eyes were then opened anterior to the equator using a razor blade. The lens was removed from the anterior part, and the tissue was immersed in RNA stabilizing agent (RNAlater; Ambion, Carlsbad, Calif.) and placed […] for transportation to the United States. Upon arrival in the United States, TM and ciliary processes (CP) were dissected on ice in the presence of RNA stabilizing agent as described previously. Dissected tissue was homogenized, and total RNA was extracted using TRIzol reagent (Gibco, Carlsbad, Calif.). Briefly, the tissue was homogenized in TRIzol, and chloroform was added to separate proteins from RNA. After centrifugation, the RNA-containing supernatant was aspirated. The RNA was precipitated with isopropanol, washed with 75% ethanol, treated with DNase, and column purified using a commercial kit (RNAeasy Mini Kit; Qiagen, Valencia, Calif.) in accordance with the manufacturer's instructions. RNA concentrations were determined with a spectrophotometer (Nanodrop; Thermo Scientific, Wilmington, Del.) and the 260:280-nm absorbance ratio was calculated to determine RNA purity.
Quantitative Real-Time PCR (qRT-PCR) The RNA samples were reverse transcribed with random hexamers to cDNA using a reverse transcription kit (Quantitect; Qiagen) in accordance with the manufacturer's instructions. Quantitative RT-PCR was performed using a commercial kit (SYBR Green RT-PCR Reagents Kit; Applied Biosystems, Carlsbad, Calif.) in an ABI PRISM 7900HT sequence detector (Applied Biosystems). […] Plasminogen activator inhibitor 1 (PAI-1) mRNA expression was measured in both TM and ciliary processes tissues. Relative quantification of gene expression was performed using the standard curve method. […] The DCt was calculated as the difference in Ct values derived from the target gene and the 18S gene. The DDCt was calculated as DCt of the normalized assayed genes in the treated samples minus DCt of normalized assayed genes in the naïve control samples. […]

PlatKO mice = test: Outflow facility in protein treated PlatKO mouse eyes (Example 14); assay type: in vivo; conditions: intravitreal protein
Method: as §4, §2
as §3, with “BSS. Steady state was initially achieved after 10 minutes.” for “BSS.”

tissue plasminogen activator [tPA]
outflow facility, mean±standard deviation (C57BL/6J mice [1]): 105.3±35.8×10^−5 μl/min/mmHg
improvement of outflow facility (Tg-MYOCY437H mice): ~31%
Mmp-2, Mmp-9 and Mmp-13 expression (Mmp-2, Mmp-9, Mmp-13): significant upregulation
doses with reported retinal toxicity [2]: 50 to 100 µg
outflow facility, mean±standard deviation (C57BL/6J mice [3]): 102.7±19.5×10^−5 μl/min/mmHg
effect on outflow facility (Mmp-9KO mice): did not increase
PLAT expression ([4]; sheep TM (FIG. 7)): down-regulates
expression of MMP1 and MMP9 ([4]; sheep TM (FIG. 7)): up-regulates
expression of MMP1, MMP2, MMP9, MMP13 and PAI-1 ([4]; sheep trabecular meshwork and ciliary processes): up-regulates
increase in outflow facility compared to BSA treated eyes (PlatKO mice): 46%
outflow facility, mean±standard deviation (PlatKO mice; no steroid, two days): 89±27×10^−5 μl/min/mmHg
